Results: US20210213104A1, “GLUCAGON AND GLP-1 CO-AGONISTS FOR THE TREATMENT OF CHRONIC KIDNEY DISEASE AND DIABETIC KIDNEY DISEASE IN TYPE 2 DIABETES” (MEDIMMUNE LIMITED, priority 2020, published 2021)

System: subjects with T2DM and renal impairment
Assay: Phase 2a: continuous glucose monitoring (CGM)
Assay type: in vivo, human
Conditions: ITT; for Percentage of time CGM Glucose in Clinically Significant Hypoglycemia (<54 mg/dL), Difference in LS Mean Change (vs Placebo) / Percentage of time CGM Glucose in Clinically Significant Hypoglycemia (<54 mg/dL), LS Mean Change / Average CGM Glucose Over 7-Day Periods, Difference in LS Mean Change (vs Placebo) / Average CGM Glucose Over 7-Day Periods, LS Mean Change / Percentage of time CGM Glucose in Hyperglycemia (>180 mg/dL), Difference in LS Mean Change (vs Placebo) / Percentage of time CGM Glucose in Hyperglycemia (>180 mg/dL), LS Mean Change / Percentage of time CGM Glucose in Hypoglycemia (<70 mg/dl), Difference in LS Mean Change (vs Placebo) / Percentage of time CGM Glucose in Hypoglycemia (<70 mg/dl), LS Mean Change / Average CGM Glucose Over 7-Day Periods, Change from Baseline to End of Dosing Period, Mean / Average CGM Glucose Over 7-Day Periods, Change from Baseline to End of Dosing Period, Median / Percentage of time CGM Glucose in Hyperglycemia (>180 mg/dL), Change from Baseline to End of Dosing Period, Mean / Percentage of time CGM Glucose in Hyperglycemia (>180 mg/dL), Change from Baseline to End of Dosing Period, Median: baseline Days −8 to −2; for Percentage of time CGM Glucose in Clinically Significant Hypoglycemia (<54 mg/dL), Difference in LS Mean Change (vs Placebo) / Percentage of time CGM Glucose in Clinically Significant Hypoglycemia (<54 mg/dL), LS Mean Change / Average CGM Glucose Over 7-Day Periods, Difference in LS Mean Change (vs Placebo) / Average CGM Glucose Over 7-Day Periods, LS Mean Change / Percentage of time CGM Glucose in Hyperglycemia (>180 mg/dL), Difference in LS Mean Change (vs Placebo) / Percentage of time CGM Glucose in Hyperglycemia (>180 mg/dL), LS Mean Change / Percentage of time CGM Glucose in Hypoglycemia (<70 mg/dl), Difference in LS Mean Change (vs Placebo) / Percentage of time CGM Glucose in Hypoglycemia (<70 mg/dl), LS Mean Change / Time in target range, LS Mean Change: ANCOVA
Description: Cotadutide was titrated from 50 μg up to 300 μg and administered once daily by subcutaneous (SC) injection over 32 days.
Cotadutide was administered at 50 μg once daily for 4 days, followed by 100 μg daily for 7 days, 200 μg daily for 7 days, and 300 μg daily for 14 days (n=20). Placebo was administered one daily for 32 days (n=20). Cotadutide and placebo were administered in the morning. Dosing commenced following predose baseline vital signs, blood tests (including HbA1c), an electrocardiogram (ECG), body weight measurement, and bioimpedance spectroscopy (BIS). Subjects then returned for daily dosing or remained overnight locally until Day 5, and thereafter, had visits at weekly intervals until a maintenance dose of 300 μg was established. Thus, Cotadutide or placebo was administered at the study site by study personal for the first four doses and on site on Days 5, 12, 19, and 32. At all other times, subjects preformed dosing at home.
A Freestyle Libre® Pro CGM device was used to measure interstitial glucose levels. […] Data generated by CGM was used at visits to adjust insulin doses and other treatments.
The CGM sensor, which is a small plastic circular device of 35 mm diameter and 5 mm depth, was applied to the back of the upper arm. Subjects wore the CGM sensor continuously up until the time of a sensor change, which was to occur within 14 days, and they were advised that they could bathe and shower, and swim in up to 3 m depth for up to 30 minutes while wearing the CGM sensor. When the CGM sensor was removed, a new CGM sensor could be reapplied, ideally close to the original site, but with the subject's site preference taken into account. CGM sensors were single-use only.
If a subject was unable to tolerate wearing the CGM sensor for the entire duration of the study, the sensor was removed; but the subject was to remain in the study with or without continued CGM and could instead be instructed to monitor capillary plasma glucose measurements four times per day (before meals and before bedtime) and record these levels in the diary provided.
Subjects underwent continuous glucose monitoring (CGM) starting from Day −14 to Day 40 (±5 days), with sensor changes within 14-day intervals. CGM readings were used to analyze change in average CGM glucose and glucose AUC7 d, coefficient of variation as a marker of glycemic variability, and time spent in target glucose range and hypoglycemia, to enable comparison across different dose levels.

[1] = 50 μg (Days 1 to 4, not 7 days)
[2] = 100 μg Dose (Days 5 to 11), Insulin Dose < 20 U/day
[3] = 100 μg Dose (Days 5 to 11), Insulin Dose ≥ 20 U/day
[4] = 100 μg Dose (Days 5 to 11), Total
[5] = 200 μg Dose (Days 12 to 18), Insulin Dose < 20 U/day
[6] = 200 μg Dose (Days 12 to 18), Insulin Dose ≥ 20 U/day
[7] = 200 μg Dose (Days 12 to 18), Total

## CCCCCCCCCCCCCCCC(=O)N[C@@H](CCC(=O)NCCCC[C@H](NC(=O)[C@H](CC(=O)O)NC(=O)[C@H](CO)NC(=O)[C@@H](NC(=O)[C@H](Cc1ccccc1)NC(=O)[C@@H](NC(=O)CNC(=O)[C@H](CCC(N)=O)NC(=O)[C@H](CO)NC(=O)[C@@H](N)Cc1c[nH]cn1)[C@@H](C)O)[C@@H](C)O)C(=O)N[C@@H](CO)C(=O)N[C@@H](CCC(=O)O)C(=O)N[C@@H](Cc1ccc(O)cc1)C(=O)N[C@@H](CC(C)C)C(=O)N[C@@H](CC(=O)O)C(=O)N[C@@H](CO)C(=O)N[C@@H](CCC(=O)O)C(=O)N[C@@H](CCCNC(=N)N)C(=O)N[C@@H](C)C(=O)N[C@@H](CCCNC(=N)N)C(=O)N[C@@H](CC(=O)O)C(=O)N[C@@H](Cc1ccccc1)C(=O)N[C@H](C(=O)N[C@@H](C)C(=O)N[C@@H](Cc1c[nH]c2ccccc12)C(=O)N[C@@H](CC(C)C)C(=O)N[C@@H](CCC(=O)O)C(=O)N[C@@H](C)C(=O)NCC(=O)NCC(=O)O)C(C)C)C(=O)O [Cotadutide]
[1]
  Percentage of time CGM Glucose in Clinically Significant Hypoglycemia (<54 mg/dL), Difference in LS Mean Change (vs Placebo): 5.28%
  Percentage of time CGM Glucose in Clinically Significant Hypoglycemia (<54 mg/dL), LS Mean Change: 4.79%
100 μg (Days 5 to 11)
  Average CGM Glucose Over 7-Day Periods, End of Dosing Period, Mean: 127.599 mg/dL
  Average CGM Glucose Over 7-Day Periods, End of Dosing Period, Median: 122.769 mg/dL
  Percentage of time CGM Glucose in Hyperglycemia (>180 mg/dL), End of Dosing Period, Mean: 10.46%
  Percentage of time CGM Glucose in Hyperglycemia (>180 mg/dL), End of Dosing Period, Median: 3.72%
  Average CGM Glucose Over 7-Day Periods, Difference in LS Mean Change (vs Placebo): -46.73 mg/dL
  Average CGM Glucose Over 7-Day Periods, LS Mean Change: -36.35 mg/dL
  Percentage of time CGM Glucose in Clinically Significant Hypoglycemia (<54 mg/dL), Difference in LS Mean Change (vs Placebo): 2.25%
  Percentage of time CGM Glucose in Clinically Significant Hypoglycemia (<54 mg/dL), LS Mean Change: 1.41%
  Percentage of time CGM Glucose in Hyperglycemia (>180 mg/dL), Difference in LS Mean Change (vs Placebo): −29.72%
  Percentage of time CGM Glucose in Hyperglycemia (>180 mg/dL), LS Mean Change: −24.62%
  Percentage of time CGM Glucose in Hypoglycemia (<70 mg/dl), Difference in LS Mean Change (vs Placebo): 2.80%
  Percentage of time CGM Glucose in Hypoglycemia (<70 mg/dl), LS Mean Change: 2.26%
  Average CGM Glucose Over 7-Day Periods, Change from Baseline to End of Dosing Period, Mean: -35.628 mg/dL
  Average CGM Glucose Over 7-Day Periods, Change from Baseline to End of Dosing Period, Median: -31.685 mg/dL
  Percentage of time CGM Glucose in Hyperglycemia (>180 mg/dL), Change from Baseline to End of Dosing Period, Mean: −24.45%
  Percentage of time CGM Glucose in Hyperglycemia (>180 mg/dL), Change from Baseline to End of Dosing Period, Median: −19.57%
[2]
  Time in target range, LS Mean Change: 26.25%
  Percentage of Time CGM Glucose Within Target Range (70-180 mg/dL), Mean: 94.44%
  Percentage of Time CGM Glucose Within Target Range (70-180 mg/dL), Median: 97.79%
  Time in target range, Change from Baseline (Days −8 to −2), Mean: 31.19%
  Time in target range, Change from Baseline (Days −8 to −2), Median: 33.99%
  Time in target range, Difference in LS Mean Change (vs Placebo): 44.84%
[3]
  Time in target range, LS Mean Change: 3.59%
  Percentage of Time CGM Glucose Within Target Range (70-180 mg/dL), Mean: 66.51%
  Percentage of Time CGM Glucose Within Target Range (70-180 mg/dL), Median: 77.04%
  Time in target range, Change from Baseline (Days −8 to −2), Mean: 2.53%
  Time in target range, Change from Baseline (Days −8 to −2), Median: 12.04%
  Time in target range, Difference in LS Mean Change (vs Placebo): 8.32%
[4]
  Time in target range, LS Mean Change: 12.25%
  Percentage of Time CGM Glucose Within Target Range (70-180 mg/dL), Mean: 75.82%
  Percentage of Time CGM Glucose Within Target Range (70-180 mg/dL), Median: 84.38%
  Time in target range, Change from Baseline (Days −8 to −2), Mean: 11.58%
  Time in target range, Change from Baseline (Days −8 to −2), Median: 14.94%
  Time in target range, Difference in LS Mean Change (vs Placebo): 22.74%
200 μg (Days 12 to 18)
  Average CGM Glucose Over 7-Day Periods, End of Dosing Period, Mean: 131.724 mg/dL
  Average CGM Glucose Over 7-Day Periods, End of Dosing Period, Median: 121.570 mg/dL
  Percentage of time CGM Glucose in Hyperglycemia (>180 mg/dL), End of Dosing Period, Mean: 14.77%
  Percentage of time CGM Glucose in Hyperglycemia (>180 mg/dL), End of Dosing Period, Median: 6.61%
  Average CGM Glucose Over 7-Day Periods, Difference in LS Mean Change (vs Placebo): -40.34 mg/dL
  Average CGM Glucose Over 7-Day Periods, LS Mean Change: -30.66 mg/dL
  Percentage of time CGM Glucose in Clinically Significant Hypoglycemia (<54 mg/dL), Difference in LS Mean Change (vs Placebo): 0.43%
  Percentage of time CGM Glucose in Clinically Significant Hypoglycemia (<54 mg/dL), LS Mean Change: −0.21%
  Percentage of time CGM Glucose in Hyperglycemia (>180 mg/dL), Difference in LS Mean Change (vs Placebo): −25.47%
  Percentage of time CGM Glucose in Hyperglycemia (>180 mg/dL), LS Mean Change: −19.24%
  Percentage of time CGM Glucose in Hypoglycemia (<70 mg/dl), Difference in LS Mean Change (vs Placebo): 0.86%
  Percentage of time CGM Glucose in Hypoglycemia (<70 mg/dl), LS Mean Change: −0.14%
  Average CGM Glucose Over 7-Day Periods, Change from Baseline to End of Dosing Period, Mean: -30.668 mg/dL
  Average CGM Glucose Over 7-Day Periods, Change from Baseline to End of Dosing Period, Median: -32.533 mg/dL
  Percentage of time CGM Glucose in Hyperglycemia (>180 mg/dL), Change from Baseline to End of Dosing Period, Mean: −19.36%
  Percentage of time CGM Glucose in Hyperglycemia (>180 mg/dL), Change from Baseline to End of Dosing Period, Median: −17.72%
[5]
  Time in target range, LS Mean Change: 21.04%
  Percentage of Time CGM Glucose Within Target Range (70-180 mg/dL), Mean: 89.01%
  Percentage of Time CGM Glucose Within Target Range (70-180 mg/dL), Median: 96.38%
  Time in target range, Change from Baseline (Days −8 to −2), Mean: 24.48%
  Time in target range, Change from Baseline (Days −8 to −2), Median: 23.79%
  Time in target range, Difference in LS Mean Change (vs Placebo): 25.01%
[6]
  Time in target range, LS Mean Change: 12.92%
  Percentage of Time CGM Glucose Within Target Range (70-180 mg/dL), Mean: 73.53%
  Percentage of Time CGM Glucose Within Target Range (70-180 mg/dL), Median: 79.59%
  Time in target range, Change from Baseline (Days −8 to −2), Mean: 11.20%
  Time in target range, Change from Baseline (Days −8 to −2), Median: 11.27%
  Time in target range, Difference in LS Mean Change (vs Placebo): 18.72%
[7]
  Time in target range, LS Mean Change: 15.62%
  Percentage of Time CGM Glucose Within Target Range (70-180 mg/dL), Mean: 78.69%
  Percentage of Time CGM Glucose Within Target Range (70-180 mg/dL), Median: 80.69%
  Time in target range, Change from Baseline (Days −8 to −2), Mean: 15.39%
  Time in target range, Change from Baseline (Days −8 to −2), Median: 14.44%
  Time in target range, Difference in LS Mean Change (vs Placebo): 20.96%
